Laboratory results reported in US20260207564A1, “DOSAGE REGIME OF ORFORGLIPRON FOR TREATING A SUBJECT WITH TYPE 2 DIABETES (T2D), OBESITY, OR OVERWEIGHT WITH AT LEAST ONE WEIGHT RELATED COMORBIDITY” (Eli Lilly and Company, priority 2022, published 2026).

Columns and labels:
[1] = assay type: in vivo, human; conditions: 26 weeks, 3 mg to 45 mg QD
Experimental: Two Phase 2 studies have evaluated the safety and efficacy of Compound 1a for the treatment of T2D and another for treatment of obesity or overweight with at least one weight related comorbidity.
The 36 and 45 mg cohorts were subdivided in a 36 mg-1 and 36 mg-2 as well as 45 mg-1 and 45 mg-2 respectively, as different starting doses, dose escalations and dose escalation steps were investigated in these subgroup cohorts (FIG. 4).
Eligible male or female participants were >18 years of age with T2D with a HbA1c 7.0% to 10.5% and a body mass index (BMI) of ≥23 kg/m2, treated with diet and exercise alone or with a stable dose of metformin and with a stable body weight (≤5% body weight gain and/or loss) for at least 3 months prior to screening/Visit 1.
The study period included a 2-week screening/lead in period and a 26-week treatment period. During the treatment period, doses were escalated for all treatment groups. The dose escalation period ranged from 4 to 12 weeks depending on dose group. The initial dose was 2 or 3 mg followed by additional escalation steps depending on assigned cohort (FIG. 4). […] All participants were provided healthy eating and exercise education by study personnel throughout the trial.
Key Safety and tolerability endpoints included the frequency of patient- and investigator-reported adverse events, rate and incidence of hypoglycaemia events (glucose <70 mg/dL [3.9 mmol/L] and ≥54 mg/dL [3.0 mmol/L], or glucose <54 mg/dL [3.0 mmol/L]), and change in safety laboratory parameters, electrocardiogram, and vital signs.
The estimand used for efficacy analyses was an “efficacy estimand”, representing the average treatment effect for the randomized population if the treatment was administered as intended, thus including data from all randomized participants who received at least one dose of study drug and excluding data after permanent discontinuation of study drug. All tests of treatment effects were conducted at a 2-sided alpha level of 0.05 without adjustment for multiple comparisons, and 2-sided 95% CIs were calculated.
(§1) Safety analyses were conducted by comparing safety of OFG with placebo and with dulaglutide irrespective of adherence to study drug. The safety analyses were conducted using the safety analysis set, which includes all randomized participants who received at least one dose of study drug. The results were presented in summary statistics, point estimates, and 95% confidence intervals along with p-values for treatment comparisons.

[2] = Phase 2 study in obesity or overweight with at least one weight related comorbidity, 36 weeks (Example 4A); assay type: in vivo, human
Description: The primary endpoint was the percentage change in body weight from baseline to week 26, with a secondary 36-week endpoint.
A 36-week Phase 2, multicenter, randomized, double-blind, parallel, placebo-controlled study was designed to examine the efficacy and safety of 4 dose levels of once daily administered Compound 1a, compared with once daily administered placebo in participants with obesity or overweight with at least one weight related comorbidity. A total of 272 patients were randomized 5:5:5:3:3:3:3 to once daily placebo or Compound 1a maintenance doses of 12 mg, 24 mg, 36 mg (36-1, 36-2) or 45 mg (45-1, 45-2) treatment groups. The 36 and 45 mg cohorts were subdivided in a 36 mg-1 and 36 mg-2 as well as 45 mg-1 and 45 mg-2 respectively, as different starting doses, dose escalations and dose escalation steps were investigated in these subgroup cohorts (FIG. 2). The different dose escalations were performed to assess the maintenance dose and titration steps for future trials.
Eligible male or female participants were >18 years of age with a HbA1c<6.5% (48 mmol/mol) and a BMI of ≥30 kg/m2 or ≥27 kg/m2 and <30 kg/m2 with at least 1 of the following weight-related comorbidities: hypertension, dyslipidemia, cardiovascular disease, or obstructive sleep apnea.
The study period included a 2-week screening/lead in period, a 36-week treatment period followed by a 2 week off-drug safety follow-up period. During the treatment period, doses were escalated for all treatment groups. The dose escalation period ranged from 0 to 16 weeks depending on dose group. The initial dose was 2 or 3 mg followed by additional escalation steps depending on assigned cohort (FIG. 2). Compound 1a or matching placebo was administered daily by oral capsule. All participants were provided healthy eating and exercise education by study personnel throughout the trial.
The primary endpoint was percent change in body weight from baseline at week 26. Secondary endpoints included percent change in body weight from baseline at week 36, change from baseline in body weight (kg), BMI (kg/m2) and waist circumference (cm), and percentage of study participants who achieved ≥5% body weight (kg) reduction, and ≥10% body weight (kg) reduction, at week 26 and week 36. Key safety endpoints included adverse events, blood pressure, heart rate, safety laboratory measures, PK parameters, and patient-reported outcomes.
A sample size of 270 participants was calculated to provide at least 90% power for testing superiority of Compound 1 versus placebo in the primary endpoint. The estimand used for efficacy analyses was an “efficacy estimand”, representing the average treatment effect for the randomized population if the treatment was administered as intended, thus including data from all randomized participants who received at least one dose of study drug and excluding data after permanent discontinuation of study drug. All tests of treatment effects were conducted at a 2-sided alpha level of 0.05 without adjustment for multiple comparisons, and 2-sided 95% CIs were calculated. To test efficacy of Compound 1a with adequate statistical power, for 36 mg and 45 mg the evaluation of the primary endpoint was made by pooling 2 dose escalation regimens (combining 36 mg-1 and 36 mg-2, for 36 mg, and combining 45 mg-1 and 45 mg-2, for 45 mg).
as §1, with “Compound 1a” for “OFG”, “placebo” for “placebo and with dulaglutide”

[3] = Phase 1 studies of clinical pharmacology, PK and PD in healthy volunteers and in participants with T2D; assay type: in vivo, human
Description: The clinical pharmacology, PK, and PD of Compound 1a were studied in 2 completed Phase 1 studies in healthy volunteers and in participants with T2D).

[4] = after 12 weeks of treatment, 9 mg QD to 45 mg QD, people with T2D

SMILES: Cc1cc(-n2nc3c(c2-n2ccn(-c4ccc5c(cnn5C)c4F)c2=O)[C@H](C)N(C(=O)c2cc4cc([C@H]5CCOC(C)(C)C5)ccc4n2[C@@]2(c4noc(=O)[nH]4)C[C@@H]2C)CC3)cc(C)c1F [Compound 1a, 3-[(1S,2S)-1-[5-[(4S)-2,2-dimethyloxan-4-yl]-2-[(4S)-2-(4-fluoro-3,5-dimethylphenyl)-3-[3-(4-fluoro-1-methylindazol-5-yl)-2-oxoimidazol-1-yl]-4-methyl-6,7-dihydro-4H-pyrazolo[4,3-c]pyridine-5-carbonyl]indol-1-yl]-2-methylcyclopropyl]-4H-1,2,4-oxadiazol-5-one]
- HbA1c treatment difference vs placebo [1]: −1.7%
- mean changes from baseline in HbA1c [1]: up to −2.1%
- mean weight loss [1]: up to 10 kg
- weight loss treatment difference vs placebo [1]: 8 kg
- percentage of patients who had weight reduction of 15% or more ([2]; 36 weeks, 45 mg): 48%
- percentage of patients who had weight reduction of 10% or more ([2]; 36 weeks, across dose groups): 47% to 75
- percentage of patients who reported AEs ([2]; across dose groups): 86% to 90.2
- mean reduction in systolic blood pressure (SBP) ([2]; baseline to week 26, across dose groups): −4.8 to −10.5 mmHg
- mean reduction in systolic blood pressure (SBP) ([2]; baseline to week 36, across dose groups): −6.7 to −10.5 mmHg
- tolerability by escalation interval ([2]; dose escalated every 3 weeks compared to every 1-2 weeks): superior tolerability
- Liver function tests compared with placebo ([2]; in vivo): not significantly increased
- Most common TEAEs ([2]; in vivo): GI related (nausea, vomiting, diarrhea and constipation)
- diastolic blood pressure (DBP) compared to placebo ([2]; in vivo): No differences were noted
- health-related quality of life and physical activity readouts versus placebo ([2]; in vivo): greater improvements
- most common adverse events ([2]; in vivo): gastrointestinal, mild to moderate in severity
- most common events reported ([2]; in vivo): Nausea, constipation, vomiting, diarrhea, and eructation
- prespecified weight and cardiometabolic measures ([2]; in vivo): improvements in all prespecified weight and cardiometabolic measures
- mean percent weight loss compared to placebo ([2]; primary 26-week endpoint): 11%
- mean percent weight loss from baseline ([2]; primary 26-week endpoint): up to 13%
- GI AE events by starting dose ([2]; starting dose of 3 mg versus 2 mg starting dose): higher GI AE events
- mean percentage change in body weight from baseline ([2]; week 26, across dose groups 12-45 mg): −8.6% to −12.6
- HDL cholesterol versus placebo ([2]; week 36): no significant change
- changes in the fasting lipids (triglycerides, total cholesterol, non-HDL cholesterol, LDL and VLDL) ([2]; week 36): Benefits with Compound 1a were noted
- mean percentage change in body weight from baseline ([2]; week 36, across dose groups 12-45 mg): −9.4% to −14.7
- PK of Compound 1a plasma concentration increase with dose ([3]; 9 mg QD to 45 mg QD dose range): approximately proportional to the increase of dose
- PK profile ([3]; Phase 1 studies): appropriate for once daily oral dosing
- most reported AEs ([3]; Phase 1 studies): nausea, vomiting, and constipation
- improvements in HbA1c [3, 4]: up to −1.4%
- weight loss [3, 4]: up to −5.8 kg
